Assay results taken from patent publication US9302999B2, “Substituted triazoles as herbicides” (E. I. DU PONT DE NEMOURS AND COMPANY, priority 2012, dated 2016).

How the values were obtained:
Assay type in all cases: in vivo
[1] = test system: ducksalad (Heteranthera limosa); experiment: Test B flooded paddy: ducksalad; details: Flood; 250 g ai/ha; applied to paddy water at 2-leaf stage; visually evaluated after 13 to 15 days
Procedure, shortened: (§1)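 Plants were grown to the 2-leaf stage and pots flooded to 3 cm above soil. Compounds were applied directly into the paddy water, with depth kept for the test. After 13–15 days in greenhouse, response was rated visually against controls on a 0 (no effect) to 100 (complete control) scale.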

[2] = test system: sedge, umbrella (small-flower umbrella sedge Cyperus difformis); experiment: Test B flooded paddy: sedge, umbrella; details: Flood; 250 g ai/ha; applied to paddy water at 2-leaf stage; visually evaluated after 13 to 15 days
Procedure, shortened: as §1

[3] = test system: morningglory (Ipomoea spp.); experiment: Test A pre-/postemergence: morningglory
Procedure, shortened: (§2)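 Compounds, formulated with surfactant in non-phytotoxic solvent, were applied as a directed soil spray preemergence and as postemergence sprays to 2–10 cm, one- to two-leaf seedlings grown in loam soil blended with sand; visual injury, 0–100, assessed ~10 days post-treatment against untreated controls.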

[4] = test system: ragweed (common ragweed, Ambrosia elation); experiment: Test C pre-/postemergence: ragweed
Procedure, shortened: (§3)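 Preemergence on seeds in loam/sand, postemergence on 2–18 cm (1–4-leaf) plants in peat-based medium; compounds in non-phytotoxic solvent with surfactant. After 13–15 days in greenhouse, visual rating versus controls, 0 (no effect) to 100 (complete control).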

[5] = test system: foxtail, giant (giant foxtail, Setaria faberii); experiment: Test A pre-/postemergence: foxtail, giant
Procedure, shortened: as §2

[6] = test system: chickweed (common chickweed, Stellaria media); experiment: Test C postemergence: chickweed
Procedure, shortened: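 Crop and weed plants were grown in peat-vermiculite medium and treated postemergence at the 1- to 4-leaf stage (2-18 cm tall). After 13-15 days in a greenhouse, each species was rated visually against untreated controls on a 0-100 scale (0 no effect, 100 complete control).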

[7] = test system: kochia (Kochia scoparia); experiment: Test C pre-/postemergence: kochia; details: Postemergence
Procedure, shortened: as §3

[8] = test system: ryegrass, Italian (Italian ryegrass, Lolium multiflorum); experiment: Test C pre-/postemergence: ryegrass, Italian
Procedure, shortened: as §3

[9] = test system: johnsongrass (Sorghum halepense); experiment: Test C pre-/postemergence: johnsongrass
Procedure, shortened: as §3

[10] = test system: soybean (Glycine max); experiment: Test C pre-/postemergence: soybean
Procedure, shortened: as §3

[11] = test system: corn (Zea mays); experiment: Test A pre-/postemergence: corn
Procedure, shortened: as §2

[12] = Postemergence, 125 g ai/ha, 0 to 100 scale, 0 is no effect, 100 is complete control
[13] = Postemergence, 500 g ai/ha, 0 to 100 scale, 0 is no effect, 100 is complete control
[14] = Preemergence, 125 g ai/ha, 0 to 100 scale where 0 is no effect and 100 is complete control
[15] = Preemergence, 500 g ai/ha, 0 to 100 scale (0 no effect, 100 complete control)
[16] = Postemergence, 31 g ai/ha, scale 0 to 100 (0 no effect, 100 complete control)
[17] = Postemergence, 62 g ai/ha, scale 0 to 100 (0 no effect, 100 complete control)
[18] = Postemergence, 125 g ai/ha, scale 0 to 100, 0 no effect, 100 complete control
[19] = Postemergence, 250 g ai/ha, scale 0 to 100 (0 no effect, 100 complete control)
[20] = Preemergence, 31 g ai/ha, scale 0 (no effect) to 100 (complete control)
[21] = Preemergence, 62 g ai/ha, scale of 0 to 100, 0 is no effect, 100 is complete control
[22] = Preemergence, 125 g ai/ha, scale 0 to 100, 0 no effect, 100 complete control
[23] = Preemergence, 250 g ai/ha, scale 0 to 100, 0 no effect, 100 complete control
[24] = 31 g ai/ha, scale 0 to 100 (0 no effect, 100 complete control)
[25] = 62 g ai/ha, scale 0 to 100 (0 no effect, 100 complete control)
[26] = 125 g ai/ha, scale 0 to 100, 0 no effect, 100 complete control

SMILES: CCCc1nn(-c2ccc(F)c(F)c2)nc1Oc1ccnc(C(F)(F)F)c1 [Compound 172]
- Plant response rating, Ducksalad (0 to 100 scale, 0 is no effect, 100 is complete control) [1]: 0
- Plant response rating, Sedge, Umbrella (0 to 100 scale, 0 is no effect, 100 is complete control) [2]: 75
- Plant response rating, Morningglory [3, 12]: 100
- Morningglory plant response rating [3, 13]: 100
- Plant response rating, Morningglory [3, 14]: 60
- Plant response rating, Morningglory [3, 15]: 80
- Plant response rating, Ragweed [4, 16]: 75
- Plant response rating, Ragweed [4, 17]: 75
- Plant response rating, Ragweed [4, 18]: 80
- Plant response rating, Ragweed [4, 19]: 80
- Plant response rating, Ragweed [4, 20]: 35
- Plant response rating, Ragweed [4, 21]: 40
- Plant response rating, Ragweed [4, 22]: 80
- Plant response rating, Ragweed [4, 23]: 85
- Plant response rating, Foxtail, Giant [5, 12]: 90
- Foxtail, Giant plant response rating [5, 13]: 90
- Plant response rating, Foxtail, Giant [5, 14]: 100
- Plant response rating, Foxtail, Giant [5, 15]: 100
- Plant response rating, Chickweed [6, 24]: 65
- Plant response rating, Chickweed [6, 25]: 85
- Plant response rating, Chickweed [6, 26]: 90
- Plant response rating, Chickweed ([6]; 250 g ai/ha, scale 0 to 100): 90
- Plant response rating, Kochia [7, 24]: 90
- Plant response rating, Kochia [7, 25]: 90
- Plant response rating, Kochia [7, 26]: 90
- Plant response rating, Kochia ([7]; 250 g ai/ha, scale 0 to 100 (0 no effect, 100 complete control)): 90
- Plant response rating, Ryegrass, Italian [8, 16]: 10
- Plant response rating, Ryegrass, Italian [8, 17]: 20
- Plant response rating, Ryegrass, Italian [8, 18]: 35
- Plant response rating, Ryegrass, Italian [8, 19]: 40
- Plant response rating, Ryegrass, Italian [8, 20]: 100
- Plant response rating, Ryegrass, Italian [8, 21]: 100
- Plant response rating, Ryegrass, Italian [8, 22]: 100
- Plant response rating, Ryegrass, Italian [8, 23]: 100
- Plant response rating, Johnsongrass [9, 16]: 35
- Plant response rating, Johnsongrass [9, 17]: 60
- Plant response rating, Johnsongrass [9, 18]: 65
- Plant response rating, Johnsongrass [9, 19]: 95
- Plant response rating, Johnsongrass [9, 20]: 60
- Plant response rating, Johnsongrass [9, 21]: 75
- Plant response rating, Johnsongrass [9, 22]: 95
- Plant response rating, Johnsongrass [9, 23]: 98
- Plant response rating, Soybean [10, 16]: 35
- Plant response rating, Soybean [10, 17]: 45
- Plant response rating, Soybean [10, 18]: 60
- Plant response rating, Soybean [10, 19]: 60
- Plant response rating, Soybean [10, 20]: 5
- Plant response rating, Soybean [10, 21]: 10
- Plant response rating, Soybean [10, 22]: 10
- Plant response rating, Soybean [10, 23]: 35
- Plant response rating, Corn [11, 12]: 30
- Corn plant response rating [11, 13]: 50
- Plant response rating, Corn [11, 14]: 30
- Plant response rating, Corn [11, 15]: 60
